Results published in patent publication US20100233096A1, “METHOD TO PRODUCE HYPERPOLARISED CARBOXYLATES AND SULPHONATES” (priority 2006, published 2010).

Tests used:
[1] = compared with NH4-acetate or Ca-acetate; solubility data available in the literature; cited from earlier work
[2] = T1 relaxation in human full blood; type: physicochemical; settings: human full blood at 37° C.
From the text: The amount of alanine, bicarbonate and lactate is dependent on the metabolic status of the tissue under investigation.

| Structure (SMILES) | solubility in water [1] | T1 relaxation [2] |
| --- | --- | --- |
| CC(=O)[O-].[Cs+] [Cs-acetate] | higher solubility in water |  |
| CC(=O)[13C](=O)O [^13C-pyruvate] |  | about 42 s |
